Laboratory results published in patent EP4603105A1, “PHARMACEUTICAL COMPOSITION CONTAINING CYCLIC COMPOUND HAVING SELECTIVE KRAS INHIBITORY EFFECT AGAINST HRAS AND NRAS” (CHUGAI SEIYAKU KABUSHIKI KAISHA, priority 2022, dated 2024).

Tests used:
[1] = molecular target: GDP-bound KRAS wild-type protein (Homo sapiens, UniProt P01116); assay: Binding to KRAS by surface plasmon resonance (SPR), dissociation constant KD; settings: Single Cycle Kinetics, 1:1 binding model
Summary of the method: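 Read-out is KD from 1:1 fitting of single-cycle kinetics sensorgrams, blank-cycle and reference-surface corrected. Proteins were GDP-loaded, biotinylated Avi-fusions freshly captured each cycle at roughly 100–300 RU. Runs were at 30°C in HBS pH 7.4 with MgCl2, GDP and 4% DMSO.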

[2] = molecular target: GDP-bound NRAS wild-type protein (Homo sapiens, UniProt P01111); assay: Binding to NRAS by surface plasmon resonance (SPR), KD and KD ratio to KRAS; settings: ratio of KD with respect to GDP-bound NRAS wild-type protein to KD with respect to KRAS
Sequence of GDP-bound NRAS wild-type protein (P01111 whole entry): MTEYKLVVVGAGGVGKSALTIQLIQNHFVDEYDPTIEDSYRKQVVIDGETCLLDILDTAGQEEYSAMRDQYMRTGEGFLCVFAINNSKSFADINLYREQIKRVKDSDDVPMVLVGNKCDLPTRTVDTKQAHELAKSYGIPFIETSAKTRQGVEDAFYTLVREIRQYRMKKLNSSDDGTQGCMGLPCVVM
Summary of the method: (§1)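 Biotinylated GDP-bound RAS was captured at about 100–300 RU. Running buffer: HBS pH 7.4, 10 mM MgCl2, 10 µM GDP, 1 mM DTT, 0.01% Tween 20, 4% DMSO.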

[3] = molecular target: HRAS wild-type protein (Homo sapiens, UniProt P01112); assay: Binding to HRAS by surface plasmon resonance (SPR), KD and KD ratio to KRAS; settings: ratio of KD with respect to HRAS wild-type protein to KD with respect to KRAS
Sequence of HRAS wild-type protein (P01112 whole entry): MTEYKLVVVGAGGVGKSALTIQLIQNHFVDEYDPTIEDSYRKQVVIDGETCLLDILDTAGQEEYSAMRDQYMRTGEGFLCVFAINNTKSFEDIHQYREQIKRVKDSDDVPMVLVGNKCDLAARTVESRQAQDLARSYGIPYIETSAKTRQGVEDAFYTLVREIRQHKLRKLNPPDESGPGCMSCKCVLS
Summary of the method: as §1

[4] = system: human lung cancer strain NCI-H441; assay: NCI-H441 cell proliferation inhibitory activity (CellTiter-Glo, 4 days); type: cell-based; settings: 50% proliferation inhibitory concentration, four days, read-out: NCl-H441 IC50
Summary of the method: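 Step one: dispense the test compound in serial DMSO dilutions. Step three: add the reagent and measure […].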

Sequence of GDP-bound KRAS wild-type protein (P01116 1-188 isoform P01116-2): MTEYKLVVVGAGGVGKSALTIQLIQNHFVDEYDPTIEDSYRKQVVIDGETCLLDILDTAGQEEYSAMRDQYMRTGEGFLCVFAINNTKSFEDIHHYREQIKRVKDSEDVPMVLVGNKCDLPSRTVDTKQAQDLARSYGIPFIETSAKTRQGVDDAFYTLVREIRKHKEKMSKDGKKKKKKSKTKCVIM

CCO[C@@H]1C[C@H]2C(=O)NC3(CCC3)C(=O)N(C)[C@@H](C3CCCC3)C(=O)N(C)[C@H](C(=O)N3CCOCC3)CC(=O)N(C)[C@@H](CC(C)C)C(=O)N[C@@H]([C@@H](C)CC)C(=O)N3CC[C@H]3C(=O)N(C)[C@H]3CC[C@@H](C)CN(C3=O)[C@@H](Cc3ccc(C(F)(F)F)cc3)C(=O)N(C)CC(=O)N[C@@H](CCc3ccc(C(F)(F)F)c(Cl)c3)C(=O)N2C1 [PP1379]
Kd [1]: 0.29 nM | NRAS /KRAS [2]: A (a compound having 10 or more and less than 20 is denoted as A) | HRAS /KRAS [3]: B (a compound having 3 or more and less than 10 is denoted as B) | IC50 [4]: 10.3 nM

CC[C@H](C)[C@@H]1NC(=O)[C@H](CC2CCC2)N(C)C(=O)C[C@@H](C(=O)N(C)C)N(C)C(=O)[C@H](C2CCCC2)N(C)C(=O)C2(CCCC2)NC(=O)[C@@H]2CCCN2C(=O)[C@H](CCc2cc(F)c(C(F)(F)F)c(F)c2)NC(=O)CN(C)C(=O)[C@H](Cc2ccc(C(F)(F)F)cc2)N2C[C@H](C)CC[C@@H](C2=O)N(C)C(=O)CN(C)C1=O [PP1386]
Kd [1]: 0.082 nM | NRAS /KRAS [2]: B (a compound having 3 or more and less than 10 is denoted as B) | HRAS /KRAS [3]: B (a compound having 3 or more and less than 10 is denoted as B) | IC50 [4]: 4.2 nM

CCO[C@@H]1C[C@H]2C(=O)NC3(CCC3)C(=O)N(C)[C@@H](C3CCCC3)C(=O)N(C)[C@H](C(=O)N(C)C)CC(=O)N(C)[C@@H](CC3CCCC3)C(=O)N[C@@H]([C@@H](C)CC)C(=O)N(C)CC(=O)N(C)[C@H]3C/C=C\CCN(C3=O)[C@@H](Cc3ccc(F)cc3)C(=O)N(C)CC(=O)N[C@@H](CCc3ccc4sccc4c3)C(=O)N2C1 [PP1390]
Kd [1]: 1.1 nM | NRAS /KRAS [2]: A (a compound having 10 or more and less than 20 is denoted as A) | HRAS /KRAS [3]: A (a compound having 10 or more and less than 20 is denoted as A) | IC50 [4]: 305 nM

CCO[C@@H]1C[C@H]2C(=O)NC3(CCC3)C(=O)N(C)[C@@H](C3CCCC3)C(=O)N(C)[C@H](C(=O)N3CCCC3)CC(=O)N(C)[C@@H](CC3CCCC3)C(=O)N[C@@H]([C@@H](C)CC)C(=O)N(C)CC(=O)N(C)[C@H]3C/C=C\CCN(C3=O)[C@@H](Cc3ccc(F)cc3)C(=O)N(C)CC(=O)N[C@@H](CCc3ccc4sccc4c3)C(=O)N2C1 [PP1391]
Kd [1]: 1.6 nM | NRAS /KRAS [2]: A (a compound having 10 or more and less than 20 is denoted as A) | HRAS /KRAS [3]: A (a compound having 10 or more and less than 20 is denoted as A) | IC50 [4]: 271 nM

CCO[C@@H]1C[C@H]2C(=O)NC3(CCC3)C(=O)N(C)[C@@H](C3CCCC3)C(=O)N(C)[C@H](C(=O)N3CCOCC3)CC(=O)N(C)[C@@H](CC3CCCC3)C(=O)N[C@@H]([C@@H](C)CC)C(=O)N(C)CC(=O)N(C)[C@H]3C/C=C\CCN(C3=O)[C@@H](Cc3ccc(C(F)(F)F)cc3)C(=O)N(C)CC(=O)N[C@@H](CCc3cc(F)c(C(F)(F)F)c(F)c3)C(=O)N2C1 [PP1393]
Kd [1]: 0.19 nM | NRAS /KRAS [2]: A (a compound having 10 or more and less than 20 is denoted as A) | HRAS /KRAS [3]: A (a compound having 10 or more and less than 20 is denoted as A) | IC50 [4]: 18.2 nM

CCCC[C@H]1C(=O)N[C@@H]([C@@H](C)CC)C(=O)N(C)CC(=O)N(C)[C@H]2C/C=C\CCN(C2=O)[C@@H](Cc2ccc(C(F)(F)F)cc2)C(=O)N(C)CC(=O)N[C@@H](CCc2cc(F)c(C(F)(F)F)c(F)c2)C(=O)N2C[C@H](OCC)C[C@H]2C(=O)NC2(CCCC2)C(=O)N(C)[C@@H](C2CCCC2)C(=O)N(C)[C@H](C(=O)N(C)C)CC(=O)N1C [PP1397]
Kd [1]: 0.073 nM | NRAS /KRAS [2]: A (a compound having 10 or more and less than 20 is denoted as A) | HRAS /KRAS [3]: A (a compound having 10 or more and less than 20 is denoted as A) | IC50 [4]: 3.7 nM

CCCOC[C@H]1C(=O)N[C@@H]([C@@H](C)CC)C(=O)N(C)CC(=O)N(C)[C@H]2C/C=C\CCN(C2=O)[C@@H](Cc2ccc(C(F)(F)F)cc2)C(=O)N(C)CC(=O)N[C@@H](CCc2cc(F)c(C(F)(F)F)c(F)c2)C(=O)N2C[C@H](OCC)C[C@H]2C(=O)NC2(CC(C)(C)C2)C(=O)N(C)[C@@H](C2CCCC2)C(=O)N(C)[C@H](C(=O)N(C)C)CC(=O)N1C [PP1398]
Kd [1]: 0.032 nM | NRAS /KRAS [2]: A (a compound having 10 or more and less than 20 is denoted as A) | HRAS /KRAS [3]: A (a compound having 10 or more and less than 20 is denoted as A) | IC50 [4]: 2.3 nM

CCCOC[C@H]1C(=O)N[C@@H]([C@@H](C)CC)C(=O)N(C)CC(=O)N(C)[C@H]2C/C=C\CCN(C2=O)[C@@H](Cc2ccc(C(F)(F)F)cc2)C(=O)N(C)CC(=O)N[C@@H](CCc2cc(F)c(C(F)(F)F)c(F)c2)C(=O)N2C[C@H](OCC)C[C@H]2C(=O)NC2(CCCC2)C(=O)N(C)[C@@H](C2CCCC2)C(=O)N(C)[C@H](C(=O)N2CCCC2)CC(=O)N1C [PP1399]
Kd [1]: 0.19 nM | NRAS /KRAS [2]: A (a compound having 10 or more and less than 20 is denoted as A) | HRAS /KRAS [3]: A (a compound having 10 or more and less than 20 is denoted as A) | IC50 [4]: 18.8 nM

CCCOC[C@H]1C(=O)N[C@@H]([C@@H](C)CC)C(=O)N(C)CC(=O)N(C)[C@H]2C/C=C\CCN(C2=O)[C@@H](Cc2ccc(C)cc2)C(=O)N(C)CC(=O)N[C@@H](CCc2cc(F)c(C(F)(F)F)c(F)c2)C(=O)N2C[C@H](OCC)C[C@H]2C(=O)NC2(CCCC2)C(=O)N(C)[C@@H](C2CCCC2)C(=O)N(C)[C@H](C(=O)N2CCCC2)CC(=O)N1C [PP1401]
Kd [1]: 0.26 nM | NRAS /KRAS [2]: A (a compound having 10 or more and less than 20 is denoted as A) | HRAS /KRAS [3]: A (a compound having 10 or more and less than 20 is denoted as A) | IC50 [4]: 34.4 nM

CC[C@H](C)[C@@H]1NC(=O)[C@H](CC2CC2)N(C)C(=O)C[C@@H](C(=O)N(C)C)N(C)C(=O)[C@H](C2CCCC2)N(C)C(=O)C2(CCC2)NC(=O)[C@H](CCC(F)F)N(C)C(=O)[C@H](CCc2cc(F)c(C(F)(F)F)c(F)c2)NC(=O)CN(C)C(=O)[C@H](Cc2ccc(C(F)(F)F)cc2)N2CC/C=C\C[C@@H](C2=O)N(C)C(=O)CN(C)C1=O [PP1402]
Kd [1]: 0.3 nM | NRAS /KRAS [2]: A (a compound having 10 or more and less than 20 is denoted as A) | HRAS /KRAS [3]: A (a compound having 10 or more and less than 20 is denoted as A) | IC50 [4]: 82 nM

CC[C@H](C)[C@@H]1NC(=O)[C@H](CC2CC2)N(C)C(=O)C[C@@H](C)N(C)C(=O)[C@H](C2CCCC2)N(C)C(=O)C2(CCC2)NC(=O)[C@H](CCC(F)F)N(C)C(=O)[C@H](CCc2cc(F)c(C(F)(F)F)c(F)c2)NC(=O)CN(C)C(=O)[C@H](Cc2ccc(C(F)(F)F)cc2)N2CC/C=C\C[C@@H](C2=O)N(C)C(=O)CN(C)C1=O [PP1404]
Kd [1]: 4.8 nM | NRAS /KRAS [2]: A (a compound having 10 or more and less than 20 is denoted as A) | HRAS /KRAS [3]: A (a compound having 10 or more and less than 20 is denoted as A) | IC50 [4]: 498 nM

CC[C@H](C)[C@@H]1NC(=O)[C@H](CC2CC2)N(C)C(=O)C[C@@H](C)N(C)C(=O)[C@H](C2CCCC2)N(C)C(=O)C2(CCC2)NC(=O)[C@H](CC(F)F)N(C)C(=O)[C@H](CCc2cc(F)c(C(F)(F)F)c(F)c2)NC(=O)CN(C)C(=O)[C@H](Cc2ccc(C(F)(F)F)cc2)N2CC/C=C\C[C@@H](C2=O)N(C)C(=O)CN(C)C1=O [PP1405]
Kd [1]: 8.5 nM | NRAS /KRAS [2]: A (a compound having 10 or more and less than 20 is denoted as A) | HRAS /KRAS [3]: A (a compound having 10 or more and less than 20 is denoted as A) | IC50 [4]: 466 nM

CCO[C@@H]1C[C@H]2C(=O)NC3(CCC3)C(=O)N(C)[C@@H](C3CCCC3)C(=O)N(C)[C@H](C(=O)N(C)C)CC(=O)N(C)[C@@H](CC3CC3)C(=O)N[C@@H]([C@@H](C)CC)C(=O)N(C)CC(=O)N(C)[C@H]3C/C=C\CCN(C3=O)[C@@H](Cc3ccc(C)cc3)C(=O)N(C)CC(=O)N[C@@H](CCc3cc(F)c(C(F)(F)F)c(F)c3)C(=O)N2C1 [PP1407]
Kd [1]: 0.074 nM | NRAS /KRAS [2]: A (a compound having 10 or more and less than 20 is denoted as A) | HRAS /KRAS [3]: A (a compound having 10 or more and less than 20 is denoted as A) | IC50 [4]: 18.7 nM

CCO[C@@H]1C[C@H]2C(=O)NC3(CCC3)C(=O)N(C)[C@@H](C3CCCC3)C(=O)N(C)[C@H](C(=O)N3CCOCC3)CC(=O)N(C)[C@@H](CC3CC3)C(=O)N[C@@H]([C@@H](C)CC)C(=O)N(C)CC(=O)N(C)[C@H]3C/C=C\CCN(C3=O)[C@@H](Cc3ccc(C)cc3)C(=O)N(C)CC(=O)N[C@@H](CCc3cc(F)c(C(F)(F)F)c(F)c3)C(=O)N2C1 [PP1408]
Kd [1]: 0.22 nM | NRAS /KRAS [2]: A (a compound having 10 or more and less than 20 is denoted as A) | HRAS /KRAS [3]: A (a compound having 10 or more and less than 20 is denoted as A) | IC50 [4]: 37.6 nM
